From PMC6514812, “[^18F]Fluoroethyltriazolyl Monocyclam Derivatives as Imaging Probes for the Chemokine Receptor CXCR4” (Molecules, 2019) come the findings set out here.

Like-named read-outs stand apart in the source and are kept apart here. Non-standard residues stand in square brackets, D forms with d. Residues, ends and D or L forms follow the SMILES beside them. Groups on a side chain read outwards from the residue. *: point of attachment. DOTA = O=C(O)CN1CCN(CC(=O)O)CCN(CC(=O)*)CCN(CC(=O)O)CC1; 2Nal = N[C@@H](Cc1ccc2ccccc2c1)C(=O)O; dNMeOrn = CN[C@H](CCCN)C(=O)O; 4Amb = NCc1ccc(C(=O)O)cc1

Data set [1] deals with PC3-CXCR4 xenograft tumors. Briefly: Biodistribution in mice bearing bilateral PC3-WT/PC3-CXCR4 xenograft tumors. Type of data set: in vivo, BALB/c mice. As to conditions: 2 h p.i. The method, then:
(§1) All animal studies were approved by the Institutional Animal Care and Use Committee of Weill Cornell Medicine (Protocol Number: 2015-0066) and were undertaken in accordance with the guidelines set forth by the USPHS Policy on Humane Care and Use of Laboratory Animals. Animals were housed under standard conditions in approved facilities with 12 h light/dark cycles. Food and water was provided ad libitum throughout the course of the studies. Hairless 6-to-8-week old male BALB/c inbred athymic nude mice (Jackson Laboratory, Bar Harbor, ME, USA) were inoculated bilaterally with 0.2 mL of a 1:1 mixture of 10^7 PC3-CXCR4 cells in PBS and Matrigel (Corning, Tewksbury, MA, USA) subcutaneously in the left shoulder and 0.2 mL of a 1:1 mixture of 10^7 PC3-WT cells in PBS and Matrigel subcutaneously in the right shoulder. Imaging and biodistribution studies were performed three weeks post-implantation, when tumors were approximately 100–300 mm^3.
(§2) For the biodistribution studies, tumor-bearing animals (n = 5/compound/time point) were injected intravenously with 50–100 μL of a 9% v/v EtOH/saline solution containing approximately 1.1 MBq of the radioligand. […] The mice were euthanized at 1 or 2 h p.i. and tissues including blood, heart, lungs, liver, small intestine, large intestine, stomach (with contents), spleen, pancreas, kidneys, muscle, bone, PC3-WT tumors, PC3-CXCR4 tumors, and tail were collected. All organs were weighed and placed in test tubes for counting in a Wizard^2 Gamma Counter (PerkinElmer, Waltham, MA, USA). For comparison, 1% injected activity standards were prepared and counted along with the tissue samples. The tails were counted to correct for any dose extravasation. Activity in each tissue was corrected for decay and for injected activity and expressed as percent injected dose per gram of tissue (%ID/g) ± standard error.

Assay in data set [2]: as above
As to conditions: male, BALB/c athymic nude, mouse, iv, total radioactivity; for tissue to tissue ratio at 2 h: 2 h p.i. Type of data set: in vivo, BALB/c mice. On the procedure:
as §1, §2

Data set [3] concerns the target T1, CXCR4 (Homo sapiens, UniProt P61073).
T1 construct: expressed in transfected cells; host or cells: PC3 (human prostate cancer) cells stably transduced with CXCR4
As to the kind of experiment: Competition binding assay vs [^68Ga]Pentixafor in PC3-CXCR4 cells. The note with it: for Hill Slope, Competitive Binding Experiment: vs [^68Ga]Pentixafor, value ± SD. The method, then:
PC3-CXCR4 cells were plated in 12-well plates at a density of 500,000 cells per well and incubated for 48 h at 37 °C/5% CO2. Prior to the binding assay the cells were incubated in fresh media and 370–555 kBq of [^68Ga]Pentixafor or [^18F]RPS-544 was added to each well. The corresponding concentration of [^68Ga]Pentixafor in each well was 100 nM, and the concentration of [^18F]RPS-544 was approximately 5 pM. Then non-radioactive ligands were added to give a final ligand concentration in the range 0.001–10,000 nM. A total of eight concentrations were studied, and each concentration was tested in triplicate. The cells were incubated for 60 min at 37 °C/5% CO2. The media was removed under suction, the cells were washed with cold PBS 1X and detached and transferred to tubes for counting in 1 M NaOH. The cells were counted in a Wizard^2 Gamma Counter (PerkinElmer, Waltham, MA, USA). Non-specific binding was subtracted, and the IC50 values were determined by assuming a simple competitive binding interaction and fitting the data to a sigmoidal Hill plot in Origin 9.0 (OriginLab, Northampton, MA, USA). Potencies are expressed as IC50 ± standard deviation (Supplemental Data, Figure S7).

Data set [4] concerns the target T1, CXCR4. Briefly: Saturation binding assay in PC3-CXCR4 cells. The method, then: To determine the dissociation constants, saturation binding assays were performed in the PC3-CXCR4 cells. The cells were plated as described above, and approximately 5 nM of the radioligand was added to each well. Then the corresponding non-radioactive ligand was added to give a final concentration in the range 0.001–10,000 nM. A total of eight concentrations were tested, and each concentration was tested in triplicate. The samples were washed and counted as described above. Non-specific binding was subtracted, and Kd values were determined by performing a nonlinear one site binding curve fit with equation y = (Bmax · x)/(Kd + x). Values are expressed as Kd ± standard deviation (Supplemental Data, Figure S8).

Another data set relates to PC3-CXCR4 cells. Briefly: Cell-associated activity in PC3-CXCR4 cells. As to conditions: 1 h. Type of data set: cell-based, human. The method, then:
Maximum cell-associated activity was calculated by subtracting the cell uptake of the radioactive ligand at the highest non-radioactive ligand concentration of 10 µM (which we considered to be non-specific uptake/binding) from the cell uptake at the lowest non-radioactive ligand concentration of 10^−5 µM.

T1 sequence (P61073 whole entry): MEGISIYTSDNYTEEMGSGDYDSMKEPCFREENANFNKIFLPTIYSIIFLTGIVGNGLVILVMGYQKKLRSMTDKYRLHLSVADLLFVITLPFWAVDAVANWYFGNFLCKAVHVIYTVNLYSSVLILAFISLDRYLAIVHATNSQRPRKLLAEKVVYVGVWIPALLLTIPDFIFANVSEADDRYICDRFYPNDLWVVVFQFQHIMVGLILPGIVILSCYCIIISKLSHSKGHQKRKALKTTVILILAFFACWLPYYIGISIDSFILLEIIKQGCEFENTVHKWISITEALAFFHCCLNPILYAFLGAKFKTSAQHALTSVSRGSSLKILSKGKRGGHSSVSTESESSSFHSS

Consider `CN1C(=O)[C@@H](Cc2ccc(O)cc2)NC(=O)CNC(=O)[C@H](Cc2ccc3ccccc3c2)NC(=O)[C@H](CCCNC(=N)N)NC(=O)[C@H]1CCCNC(=O)c1ccc(CNC(=O)CN2CCN(CC(=O)O)CCN(CC(=O)O)CCN(CC(=O)O)CC2)cc1` (68Ga complex, metal not drawn) [Pentixafor, reference compound] (cyclo([dY][dNMeOrn]([4Amb-DOTA])R[2Nal]G)), for which the “PC3-CXCR4 Tumor-to-Tissue Ratio Blood” value in data set [1] worked out at 32.1 ± 0.1. The “PC3-CXCR4 ratio to all normal tissue except kidneys” value in data set [1] is “greater than 10”. The tissue to tissue ratio at 1 h in data set [2] (PC3-CXCR4 tumor and PC3-WT tumor, 1 h p.i., read-out: PC3-CXCR4 Tumor-to-Tissue Ratio PC3-WT) is 2 ± 0.2; in data set [2] (PC3-CXCR4 tumor and blood, 1 h p.i., read-out: PC3-CXCR4 Tumor-to-Tissue Ratio Blood), 11.4 ± 0.2; in data set [2] (PC3-CXCR4 tumor and bone, 1 h p.i., read-out: PC3-CXCR4 Tumor-to-Tissue Ratio Bone), 28.7 ± 0.2; in data set [2] (PC3-CXCR4 tumor and kidneys, 1 h p.i., read-out: PC3-CXCR4 Tumor-to-Tissue Ratio Kidneys), 4 ± 0.2; in data set [2] (PC3-CXCR4 tumor and liver, 1 h p.i., read-out: PC3-CXCR4 Tumor-to-Tissue Ratio Liver), 10.8 ± 0.2; in data set [2] (PC3-CXCR4 tumor and lungs, 1 h p.i., read-out: PC3-CXCR4 Tumor-to-Tissue Ratio Lungs) it was 11.8 ± 0.2. The tissue to tissue ratio at 1 h in data set [2] (PC3-CXCR4 tumor and muscle, 1 h p.i., read-out: PC3-CXCR4 Tumor-to-Tissue Ratio Muscle) is 56.1 ± 0.2. Further, the tissue to tissue ratio at 2 h was 2.8 ± 0.1 in data set [2] (PC3-CXCR4 tumor and PC3-WT tumor, read-out: PC3-CXCR4 Tumor-to-Tissue Ratio PC3-WT); 31.1 ± 0.1 in data set [2] (PC3-CXCR4 tumor and blood, read-out: PC3-CXCR4 Tumor-to-Tissue Ratio Blood); 47.2 ± 0.1 in data set [2] (PC3-CXCR4 tumor and bone, read-out: PC3-CXCR4 Tumor-to-Tissue Ratio Bone); 5.3 ± 0.1 in data set [2] (PC3-CXCR4 tumor and kidneys, read-out: PC3-CXCR4 Tumor-to-Tissue Ratio Kidneys); 10.8 ± 0.1 in data set [2] (PC3-CXCR4 tumor and liver, read-out: PC3-CXCR4 Tumor-to-Tissue Ratio Liver); 17.1 ± 0.1 in data set [2] (PC3-CXCR4 tumor and lungs, read-out: PC3-CXCR4 Tumor-to-Tissue Ratio Lungs). For the same compound, the tissue to tissue ratio at 2 h in data set [2] (PC3-CXCR4 tumor and muscle, read-out: PC3-CXCR4 Tumor-to-Tissue Ratio Muscle) was found to be 101.2 ± 0.1. Besides, in data set [2] (PC3-CXCR4 tumor, 1 h p.i., read-out: Maximum PC3-CXCR4 tumor activity), the tissue uptake at 1 h was found to be 14.6 ± 2.7 %ID/g.
As for `c1ccc(CNCc2ccc(CN3CCCNCCNCCCNCC3)cc2)nc1` [AMD-3465, reference compound], the “Hill Slope, Competitive Binding Experiment” value at CXCR4 [3] turned out to be 1.01 ± 0.30.
For the compound `FCCn1cc(NCc2ccc(CN3CCCNCCNCCCNCC3)cc2)nn1` [RPS-546], at CXCR4 [4] (saturation binding, PC3-CXCR4 cells), the Kd was approximately 1700 nM. Moreover, the “Hill Slope, Saturation Binding Experiment” value at CXCR4 [4] (value ± SD) was determined as 0.98 ± 0.19. At CXCR4 [3] (vs 100 nM [^68Ga]Pentixafor, PC3-CXCR4 cells, 60 min 37 °C), this compound came in with a concentration for half-maximal inhibition (IC50) of approximately 1500 nM. The “Hill Slope, Competitive Binding Experiment” value at CXCR4 [3] stood at 0.96 ± 0.10. In addition, the “Cell-Associated Activity” value with PC3-CXCR4 cells came out at 1.2 ± 0.1 %IA.
